Laboratory results taken from publication PMC9654784, “Targeting SARS-CoV-2 nsp13 Helicase and Assessment of Druggability Pockets: Identification of Two Potent Inhibitors by a Multi-Site In Silico Drug Repurposing Approach” (Molecules, 2022).

Each molecule was assayed against T1, SARS-CoV-2 nsp13 (Severe acute respiratory syndrome coronavirus 2, UniProt P0DTD1) (assay: SARS-CoV-2 nsp13 unwinding-associated activity). Conditions: concentration required to inhibit nsp13-associated unwinding activity by 50%; 1 nM nsp13, 1 mM ATP, 750 nM DNA substrate.
Type: biochemical
Experimental: (§1) The SARS-CoV-2 nsp13 his-tagged was expressed in E. coli BL21 Rosetta 2 cells from a pNIC-ZB (addgene #159614). A purification protocol was adopted from Newman et al.. Terrific Broth media was used to culture the cells at 37 °C and at 200 rpm until 1.6 OD600. Then, protein expression was induced with […] for 16 h at 18 °C, at 200 rpm, and then pelleted and resuspended in lysis buffer (50 mM HEPES pH 7.5, 500 mM NaCl, 5% Glycerol, 10 mM Imidazole, 0.5 mM TCEP, Merck Protease inhibitor cocktail III, 1:500). After sonication and clarification at 15,000× g for 30 min, the crude extract was used for a batch binding of 40 min in a three-dimensional rotating mixer with 5 mL of Ni-sepharose (cytiva) under orbital. Then, the tubes were centrifuged at 700× g at 4 °C for 5 min, and the resin was loaded onto a gravity flow column (econo column BioRad) connected to a BioLogic LP (BioRad). It was subsequently washed (1 mL/min) with a lysis buffer for 40 min and with a wash buffer (50 mM HEPES pH 7.5, 500 mM NaCl, 5% Glycerol, 45 mM Imidazole, 0.5 mM TCEP) for 25 min. A further 10 min wash with a Hi-salt buffer (50 mM HEPES pH 7.5, 1 M NaCl, 5% Glycerol, 0.5 mM TCEP) was performed, followed by another 10 min of wash buffer. Proteins were eluted with the addition of 15 mL of elution buffer (50 mM HEPES pH 7.5, 500 mM NaCl, 5% Glycerol, 300 mM Imidazole, 0.5 mM TCEP). The elution fraction was analyzed for purity by SDS page, and clean fractions were pooled and dialyzed against a desalting buffer containing 25 mM HEPES pH 7.5, 250 mM NaCl, 20% Glycerol, and 0.25 mM TCEP. Proteins were stored at −80 °C.
The SARS-CoV-2 nsp13 unwinding-associated activity was measured in black 384-well plates (PerkinElmer). The reaction mixture, as described in [34], contained 20 mM Tris–HCl pH 7.2. 50 mM NaCl, 2 mM MgCl2, 10 μg/mL of BSA, 180 μM TCEP, 2 μM Hel Capture oligo (5′- […] -3′) (Biomers) 5% DMSO or inhibitor, and 1 nM of purified nsp13. The enzyme was pre-incubated for 10 min with the inhibitor at room temperature, and then reaction was started by adding 1 mM ATP and 750 nM annealed DNA substrate (5′- […]-Cy3-3′. 5′- BHQ-2-[…]-3′) (Biomers). Reaction volume was 40 μL. Compounds SSYA10-001 and Licoflavone C were used as positive controls of inhibition; the reaction lasted for 15 min at 37 °C, and then the products were measured with Victor Nivo (Perkin) at 530/580 nm.

Molecule	IC50 [µM]
CCO/N=C(\C(=O)N[C@@H]1C(=O)N2C(C(=O)[O-])=C(Sc3nc(-c4cc[n+](C)cc4)cs3)CS[C@H]12)c1nsc(NP(=O)(O)O)n1 [Ceftaroline fosamil]	> 30
CC(C)=CCc1c(O)cc(O)c2c(=O)cc(-c3ccc(O)cc3)oc12 [Licoflavone C]	8.7 ± 1.3
CC(C)(Cc1cccc(CC(=O)NCc2cccc(-c3ccc(O)cc3)c2)c1)NC[C@H](O)c1ccc(O)c(NS(C)(=O)=O)c1 [PF-00610355]	22.4 ± 1.7
CC(C)(C)c1cc(NC(=O)NCc2ccccc2Sc2ccc3nnc(-c4ccccc4SCCO)n3c2)n(-c2ccc(O)c(Cl)c2)n1 [PF-03715455]	3.02 ± 0.21
OC[C@H]1O[C@@H](Oc2cc(O)cc(/C=C/c3ccc(O)cc3)c2)[C@H](O)[C@@H](O)[C@@H]1O [Polydatin]	> 30
C=CCn1c(CSc2ccccc2[N+](=O)[O-])n[nH]c1=S [SSYA10-001]	2.3 ± 0.7

Same assay, conditions: measured in the presence of the highest tested compound concentration

Molecule	Percentage of control, unwinding activity [%]
CCO/N=C(\C(=O)N[C@@H]1C(=O)N2C(C(=O)[O-])=C(Sc3nc(-c4cc[n+](C)cc4)cs3)CS[C@H]12)c1nsc(NP(=O)(O)O)n1 [Ceftaroline fosamil]	100
OC[C@H]1O[C@@H](Oc2cc(O)cc(/C=C/c3ccc(O)cc3)c2)[C@H](O)[C@@H](O)[C@@H]1O [Polydatin]	100
nicotinamide adenine dinucleotide [NADH]	100

The molecules below were run against T1, SARS-CoV-2 nsp13 (assay: SARS-CoV-2 nsp13 ATPase (NTPase)-associated activity). Conditions: concentration required to inhibit nsp13-associated ATPase activity by 50%; 25 nM nsp13, 400 µM ATP.
Type: biochemical
Experimental: as §1
The SARS-CoV-2 nsp13 helicase-associated activity was measured in a transparent 96-well plate (PerkinElmer), as described in [34]. Briefly, the reaction mixture contained 20 mM Tris–HCl pH 7.2, 50 mM NaCl, 2 mM MgCl2, 10 µg/mL of BSA, 180 µM TCEP, 5% DMSO or inhibitor, and 25 nM of purified nsp13. The reaction was started by adding 400 µM ATP. Total reaction volume was 25 μL. Compound Licoflavone C was used as positive control of inhibition. The reaction lasted for 30 min at 37 °C. […] The products were measured with Victor Nivo (Perkin) at 650 nm.

Molecule	IC50 [µM]	IC50 NTPase
CCO/N=C(\C(=O)N[C@@H]1C(=O)N2C(C(=O)[O-])=C(Sc3nc(-c4cc[n+](C)cc4)cs3)CS[C@H]12)c1nsc(NP(=O)(O)O)n1 [Ceftaroline fosamil]	> 30	–
CC(C)=CCc1c(O)cc(O)c2c(=O)cc(-c3ccc(O)cc3)oc12 [Licoflavone C]	20.9 ± 0.8	–
CC(C)(Cc1cccc(CC(=O)NCc2cccc(-c3ccc(O)cc3)c2)c1)NC[C@H](O)c1ccc(O)c(NS(C)(=O)=O)c1 [PF-00610355]	> 30	not active
CC(C)(C)c1cc(NC(=O)NCc2ccccc2Sc2ccc3nnc(-c4ccccc4SCCO)n3c2)n(-c2ccc(O)c(Cl)c2)n1 [PF-03715455]	9.26 ± 1.93	–
OC[C@H]1O[C@@H](Oc2cc(O)cc(/C=C/c3ccc(O)cc3)c2)[C@H](O)[C@@H](O)[C@@H]1O [Polydatin]	> 30	–

Same assay, conditions: measured in the presence of the highest tested compound concentration

Molecule	Percentage of control, NTPase activity [%]
CCO/N=C(\C(=O)N[C@@H]1C(=O)N2C(C(=O)[O-])=C(Sc3nc(-c4cc[n+](C)cc4)cs3)CS[C@H]12)c1nsc(NP(=O)(O)O)n1 [Ceftaroline fosamil]	100
CC(C)(Cc1cccc(CC(=O)NCc2cccc(-c3ccc(O)cc3)c2)c1)NC[C@H](O)c1ccc(O)c(NS(C)(=O)=O)c1 [PF-00610355]	100
OC[C@H]1O[C@@H](Oc2cc(O)cc(/C=C/c3ccc(O)cc3)c2)[C@H](O)[C@@H](O)[C@@H]1O [Polydatin]	100
nicotinamide adenine dinucleotide [NADH]	100
